A short description of series [1]: Critical micelle concentration by pyrene fluorescence method. It is filed as physicochemical. To be noted: in water. The procedure: Critical Micelle Concentration (CMC) values of the synthetic compounds were determined by pyrene fluorescence method[28] using a Varian Cary Eclipse Fluorescence spectrometer (Agilent Technology, California, USA). The respective solutions were prepared using water previously saturated with pyrene (1 µM final concentration) in different concentrations (0.000001, 0.00001, 0.0001, 0.001, 0.01, 0.1, 1, 2.5, 5, 10, 15, 20 mM). Emission spectra of pyrene were obtained by exciting the samples at 334 nm. The fluorescence intensity ratio of I1/I3 (I1 = 373 nm, I3 = 383 nm) was plotted against sample solution concentration. The concentration at which the first break occurs was referred as the CMC value of the compound in water. Measurements were determined in triplicate.

Series [2] is described as follows: Creaming stability (creaming index) of 30% fish oil-in-water emulsions. It is filed as physicochemical. To be noted: 30% fish oil-in-water emulsion, storage at 5 °C, 7 days. The procedure: (§1) The synthetic compounds were evaluated as emulsifiers for fish oil-in-water emulsions and compared to commercial DATEM. Emulsions consisting of 30.0% fish oil were prepared using 1.5 mL (0.1 M) of emulsifier solutions in phosphate buffer (pH 7.0). Coarse emulsions were first created by homogenization of lipid and aqueous phases (PRO250, PRO Scientific, Oxford, USA) at high speed for two minutes at room temperature. Further reduction particle size was achieved by use of a probe sonicator (Branson sonifier 250, Branson ultrasonics, Danbury, US) for a period of 3 min.
To examine their creaming stability, duplicate emulsions were transferred to clear, screw-capped 15 mL vials (diameter 1.8 cm) and stored at 5 °C. By aid of daily digital photographs, the phase separation in each emulsion was monitored over 7 days. The extent of creaming was characterized by the creaming index (CI) according to Equation (2), where HA is the height of the lower, aqueous phase, and HE is the total height of emulsion[30]).1 %CI=HA/HE×100

Series [3] in a line: Temp-ramp FT-IR determination of lateral lipid chain packing. It is filed as physicochemical. The conditions noted are these: FT-IR CH2 rocking region, 28 °C. Here is the method: Fourier transform infrared spectroscopy (FT-IR) was applied to determine the molecular organization of the amphiphilic lipids. Spectra were recorded using an ATR-FTIR (PIKE, Madison, WI; Bruker, Ettlingen, Germany). The synthesized compounds were dried under low pressure over night, and then pressed onto a ZnSe ATR crystal mounted in a trough plate. […] Spectra were collected with a spectral resolution of 4 cm^−1 with 8 scans over the range of 3500–650 cm^−1. The FTIR spectra were analyzed by using MicroCal Origin 9.0 software.

Series [4] can be described thus: Lipid oxidation in fish oil-in-water emulsions (TBARS assay). The conditions noted are these: relative to emulsions with commercial DATEM, after 7 days (1 week) of storage. The procedure:
as §1
The ability of the new emulsifiers to inhibit lipid oxidation in emulsions was evaluated using Thiobarbituric acid-reactive species (TBARS) assay. TBARS were used to measure the formation of malondialdehyde, a major product of lipid oxidation, in emulsions after one week of storage. A solution of TCA-TBA-HCl was prepared by mixing 15 g of TCA, 375 mg TBA, 1.76 ml 12 N HCl, and 82.9 ml water. […] of this solution was mixed with 20 µl of the emulsion sample previously in 1 ml of distilled water. Thereafter, the mixture was heated at 100 °C for 15 min, cooled to room temperature within 10 min under a running tap water, and centrifuged at 2000×g for 15 min[22]. TBA formed colored complexes with the secondary oxidation products, which were detected in a UV-visible spectrophotometer (Cary 50Bio, Varian, Australia) at 532 nm. The relative degree of oxidation in each emulsion was calculated with respect to the degree of oxidation in emulsions with commercial DATEM, according to Equation (3), where AS is the absorbance of samples with added stabilizer, and A0 is the absorbance of samples with no added emulsifier. Measurements were taken on duplicate emulsion samples.2 Oxidation(%)=AS/AO×100

Series [5] can be described thus: Langmuir isotherm of monolayer. It is filed as physicochemical. To be noted: aqueous subphase, neutral pH. The procedure:
(§2) Langmuir-Blodgett studies was carried out for compound C14, being the ultimate compound with both surface active and antioxidant properties, according to the method of Correa et al.[29] with slight modications. Experiments were performed in aqueous solutions at neutral pH. Briefly, 20 µl of 2 mg/mL solution of C14 in chloroform:methanol (9:1, v/v) was applied to the aqueous phase and allowed to evaporate for a period of 20 min. Thereafter, the barriers were compressed at a constant rate of ~9 Å/ (chain min) until film collapsed. After stable conditions were attained, deposition of the corresponding film was carried out onto a hydrophilic mica support at a pressure just before film collapsed. The deposited monolayers on mica were left to air dry overnight. AFM images were acquired at ambient conditions by air tapping mode using a silicon tip on a micro cantilever (Olympus Inc., Japan) with a spring constant of 26 N/m and resonant frequency of 300 kHz. All measurements were performed in the center of the sample. Analyses were done in duplicates.

A short description of series [6]: Atomic force microscopy of Langmuir-Blodgett films on mica. To be noted: film transferred to mica at ~22 mN/m. It is filed as physicochemical. Here is the method:
as §2

Where “and” joins values, the source holds several entries; their conditions need not be identical. Identical values can stand only once.

Usually melting point stands for the temperature, or range, at which the solid turns liquid.

For `CCCCCCCC(=O)OCC(O)COC(=O)C(CC(=O)O)OC(=O)/C=C/c1ccc(OC)c(OC)c1` (stereo not shown) [C8], the “Critical micelle concentration (CMC)” value in series [1] is 10 mM. Also, the “Creaming index (CI)” value in series [2] is listed as 15.1%. The Lipid packing mode result in series [3] is “Hexagonal”.

With `CCCCCCCCCC(=O)OCC(O)COC(=O)C(CC(=O)O)OC(=O)/C=C/c1ccc(OC)c(OC)c1` (stereo not shown) [C10], the “Critical micelle concentration (CMC)” value in series [1] is recorded as 5 mM. Besides, the “Creaming index (CI)” value in series [2] was 10.35%. In addition, the Lipid packing mode result in series [3] is reported as “Hexagonal”.

As to `CCCCCCCCCCCC(=O)OCC(O)COC(=O)C(CC(=O)O)OC(=O)/C=C/c1ccc(OC)c(OC)c1` (stereo not shown) [C12], the “Creaming index (CI)” value in series [2] came to 0%. Also, the Lipid packing mode result in series [3] is on record as “Hexagonal”.

On to `CCCCCCCCCCCC(=O)OCC(O)COC(=O)C(CC(=O)O)OC(=O)/C=C/c1ccc(O)c(O)c1` (stereo not shown) [C12a], for which the “Creaming index (CI)” value in series [2] is 0%. The “Relative oxidation in emulsions (as TBARS)” value (“Relative oxidation” for short) in series [4] is reported as 25.72 ± 0.03%. For the same compound, the Lipid packing mode result in series [3] was “Hexagonal”.

Turning to `CCCCCCCCCCCCCC(=O)OCC(O)COC(=O)C(CC(=O)O)OC(=O)/C=C/c1ccc(OC)c(OC)c1` (stereo not shown) [C14], in series [2], the “Creaming index (CI)” value is on record as 0%. Moreover, the “Surface pressure at monolayer collapse” value in series [5] stood at 39 mN/m. Further, in series [6], the Double-layer film thickness is 5.2 nm and 6.7 nm; the Monolayer film thickness is listed as 2.3 nm. Further, the Lipid packing mode result in series [3] is listed as “Hexagonal”.

`CCCCCCCCCCCCCC(=O)OCC(O)COC(=O)C(CC(=O)O)OC(=O)/C=C/c1ccc(O)c(O)c1` (stereo not shown) [C14a]: the “Creaming index (CI)” value in series [2] was 0%. For the same compound, the “Relative oxidation” value in series [4] is recorded as 19.26 ± 0.05%. The Lipid packing mode result in series [3] was “Hexagonal”.

Turning to `CCCCCCCCCCCCCCCC(=O)OCC(O)COC(=O)C(CC(=O)O)OC(=O)/C=C/c1ccc(OC)c(OC)c1` (stereo not shown) [C16], the “Creaming index (CI)” value in series [2] is on record as 0%. Further, the Lipid packing mode entry in series [3] is reported as “Hexagonal”.

On to `CCCCCCCCCCCCCCCC(=O)OCC(O)COC(=O)C(CC(=O)O)OC(=O)/C=C/c1ccc(O)c(O)c1` (stereo not shown) [C16a], for which, in series [2], the “Creaming index (CI)” value worked out at 0%. Further, the “Relative oxidation” value in series [4] worked out at 39.04 ± 0.02%. Besides, in series [3], the Lipid packing mode result is on record as “Hexagonal”.

For `CCCCCCCCCCCCCCCCCC(=O)OCC(O)COC(=O)C(CC(=O)O)OC(=O)/C=C/c1ccc(OC)c(OC)c1` (stereo not shown) [C18], the melting point amounted to 38 °C. Moreover, the “Critical micelle concentration (CMC)” value in series [1] was 0.01 mM. In series [2], the “Creaming index (CI)” value amounted to 37.2%. Besides, the Lipid packing mode result in series [3] is on record as “Orthorhombic”.

Source of the values: PMC5770433, “A new group of synthetic phenolic-containing amphiphilic molecules for multipurpose applications: Physico-chemical characterization and cell-toxicity study” (Scientific Reports, 2018).
